Test results reported in article PMC4965013, “Open Source Drug Discovery with the Malaria Box Compound Collection for Neglected Diseases and Beyond” (PLoS Pathogens, 2016).
pEC50, pIC50: −log10 of the molar value. Where two headings read alike, the source gives them in different places.

Legend:
[1] = test system: P. falciparum 3D7 trophozoites; assay: Metabolomic fingerprint profiling LC-MS; type: cell-based, Plasmodium falciparum; design: UDP-D-glucose / ADP-D-glucose: unit not given here; conditions: for Acetyllysine / N-acetyl-L-ornithine / N-carbamoyl-L-aspartate / NADPH / dAMP / dCMP / dTDP / dTMP / dTTP / dihydroorotate / orotate / DLH / DLS/SDL/SID / PD / PEE / PVNF / 3-phosphoglycerate / ADP-D-glucose / ATP / CDP / D-sedoheptulose-1/7-phosphate / FAD / GMP / NAD+ / NADP+ / Octoluse Bisphosphate / Pyroglutamic acid / UDP-D-glucose / UDP-D-glucuronate / UDP-N-acetyl-glucosamine / UDP / UMP / UTP / a-ketoglutarate / citrate/isocitrate / cytidine / dATP / dGMP/AMP / fumarate / glucose-1/6-phosphate / glycerate / guanine / guanosine / hypoxanthine / indole / inosine / nicotinate / ornithine / phosphoenolpyruvate / pyruvate / ribose-phosphate / sarcosine/alanine / sn-glycerol-3-phosphate / succinate/methylmalonic acid / uridine / xanthosine: S2 Table Metabolomics; for Acetyllysine: metabolite Acetyllysine; for N-acetyl-L-ornithine: metabolite N-acetyl-L-ornithine; for N-carbamoyl-L-aspartate: metabolite N-carbamoyl-L-aspartate; for NADPH: metabolite NADPH; for dAMP: metabolite dAMP; for dCMP: metabolite dCMP; for dTDP: metabolite dTDP; for dTMP: metabolite dTMP; for dTTP: metabolite dTTP; for dihydroorotate: metabolite dihydroorotate; for orotate: metabolite orotate; for DLH: peptide DLH; for DLS/SDL/SID: peptide DLS/SDL/SID; for PD: peptide PD; for PEE: peptide PEE; for PVNF: peptide PVNF; for 3-phosphoglycerate: metabolite 3-phosphoglycerate; for ADP-D-glucose: metabolite ADP-D-glucose; for ATP: metabolite ATP; for CDP: metabolite CDP; for CDP / D-sedoheptulose-1/7-phosphate / GMP / Octoluse Bisphosphate / UDP / UMP / UTP / citrate/isocitrate / dGMP/AMP / fumarate / glucose-1/6-phosphate / glycerate / guanine / guanosine / inosine / pyruvate / sarcosine/alanine / succinate/methylmalonic acid / uridine / xanthosine: change in metabolite level after compound treatment; for D-sedoheptulose-1/7-phosphate: metabolite D-sedoheptulose-1/7-phosphate; for FAD: metabolite FAD; for GMP: metabolite GMP; for NAD+: metabolite NAD+; for NADP+: metabolite NADP+; for Octoluse Bisphosphate: metabolite Octoluse Bisphosphate; for Pyroglutamic acid: metabolite Pyroglutamic acid; for UDP-D-glucose: metabolite UDP-D-glucose; for UDP-D-glucuronate: metabolite UDP-D-glucuronate; for UDP-N-acetyl-glucosamine: metabolite UDP-N-acetyl-glucosamine; for UDP: metabolite UDP; for UMP: metabolite UMP; for UTP: metabolite UTP; for a-ketoglutarate: metabolite a-ketoglutarate; for citrate/isocitrate: metabolite citrate/isocitrate; for cytidine: metabolite cytidine; for dATP: metabolite dATP; for dGMP/AMP: metabolite dGMP/AMP; for fumarate: metabolite fumarate; for glucose-1/6-phosphate: metabolite glucose-1/6-phosphate; for glycerate: metabolite glycerate; for guanine: metabolite guanine; for guanosine: metabolite guanosine; for hypoxanthine: metabolite hypoxanthine; for indole: metabolite indole; for inosine: metabolite inosine; for 2_3-Diphosphoglyceric acid / 4-phosphopantothenate / 6-phospho-D-gluconate / FMN / IMP / Pyrophosphate / Sedoheptoluse bisphosphate / cyclic-AMP / glutathione disulfide / lactate / myo-inositol: metabolite level change after treatment; for nicotinate: metabolite nicotinate; for ornithine: metabolite ornithine; for phosphoenolpyruvate: metabolite phosphoenolpyruvate; for pyruvate: metabolite pyruvate; for ribose-phosphate: metabolite ribose-phosphate; for sarcosine/alanine: metabolite sarcosine/alanine; for sn-glycerol-3-phosphate: metabolite sn-glycerol-3-phosphate; for succinate/methylmalonic acid: metabolite succinate/methylmalonic acid; for uridine: metabolite uridine; for xanthosine: metabolite xanthosine
[2] = test system: P. falciparum 3D7; assay: [3H]-hypoxanthine growth inhibition, modified HCO3- or O2; type: cell-based; conditions: for pIC50: Plasmodium falciparum
[3] = test system: P. falciparum; assay: EC50 listed in S2 Table Metabolomics (used to set the concentration tested); type: cell-based; conditions: Plasmodium falciparum; EC50 used for Factor_XEC50 in metabolomics; read-out: EC50_nM
[4] = 3D7, read-out: P. falciparum 3D7 IC50 HCO3- (2g/L), standard media
[5] = 3D7, HCO3- reduced media, read-out: P. falciparum 3D7 IC50 HCO3- reduced

Compound: O=C(NCC(c1ccsc1)N1CCCCCC1)c1ccc(C(F)(F)F)cc1 (stereo not shown) [MMV396672]
- Acetyllysine [1]: -0.3412
- N-acetyl-L-ornithine [1]: 0.04406
- N-carbamoyl-L-aspartate [1]: 1.501
- NADPH [1]: 1.59
- dAMP [1]: -0.1547
- dCMP [1]: -0.6707
- dTDP [1]: -0.2295
- dTMP [1]: -0.1132
- dTTP [1]: -0.02683
- dihydroorotate [1]: 1.3113
- orotate [1]: -0.2374
- DLH [1]: 0.2454
- DLS/SDL/SID [1]: 0.4945
- PD [1]: -0.2062
- PEE [1]: 0.3834
- PVNF [1]: 0.4792
- 3-phosphoglycerate [1]: 0.01662
- ADP-D-glucose [1]: 0.1495
- ATP [1]: 0.06805
- CDP [1]: -0.3083
- D-sedoheptulose-1/7-phosphate [1]: -0.1874
- FAD [1]: 0.01705
- GMP [1]: -0.121
- NAD+ [1]: -0.07697
- NADP+ [1]: 0.1144
- Octoluse Bisphosphate [1]: -0.0874
- Pyroglutamic acid [1]: -0.2718
- UDP-D-glucose [1]: 0.05361
- UDP-D-glucuronate [1]: 0.1556
- UDP-N-acetyl-glucosamine [1]: -0.04862
- UDP [1]: -0.327
- UMP [1]: -1.306
- UTP [1]: -0.1422
- a-ketoglutarate [1]: -0.6396
- citrate/isocitrate [1]: -0.6773
- cytidine [1]: 0.6424
- dATP [1]: 0.05116
- dGMP/AMP [1]: -0.08656
- fumarate [1]: -0.2118
- glucose-1/6-phosphate [1]: 0.01846
- glycerate [1]: -1.2197
- guanine [1]: -0.7457
- guanosine [1]: -1.987
- hypoxanthine [1]: 0.2737
- indole [1]: 0.1693
- inosine [1]: -0.393
- 2_3-Diphosphoglyceric acid [1]: -0.1323
- 4-phosphopantothenate [1]: -0.391
- 6-phospho-D-gluconate [1]: -0.02288
- FMN [1]: 0.06346
- IMP [1]: -0.1805
- Pyrophosphate [1]: -0.05249
- Sedoheptoluse bisphosphate [1]: -0.2083
- cyclic-AMP [1]: -0.07949
- glutathione disulfide [1]: -0.4263
- lactate [1]: -0.6757
- myo-inositol [1]: -1.04
- nicotinate [1]: -1.005
- ornithine [1]: 0.1454
- phosphoenolpyruvate [1]: -0.3004
- pyruvate [1]: -1.162
- ribose-phosphate [1]: 0.03374
- sarcosine/alanine [1]: -0.5204
- sn-glycerol-3-phosphate [1]: -0.07409
- succinate/methylmalonic acid [1]: -0.4318
- uridine [1]: -0.8839
- xanthosine [1]: -0.8196
- fold change (IC50reduced/IC50normal) [2]: 2.6
- pIC50 [2, 4]: 6.37
- pIC50 [2, 5]: 5.95
- pEC50 [3]: 6.36

Compound: CCN(CC)CCNc1ncnc2c1[nH]c1ccc(Cl)cc12 [MMV396703]
- Acetyllysine [1]: -0.2691
- N-acetyl-L-ornithine [1]: -0.2168
- N-carbamoyl-L-aspartate [1]: 1.148
- NADPH [1]: -0.09375
- dAMP [1]: 0.7031
- dCMP [1]: -0.6066
- dTDP [1]: 0.1301
- dTMP [1]: 0.2768
- dTTP [1]: -0.448
- dihydroorotate [1]: 1.736
- orotate [1]: -0.221
- DLH [1]: -2.825
- DLS/SDL/SID [1]: -3.008
- PD [1]: -0.5054
- PEE [1]: -0.1284
- PVNF [1]: -2.309
- 3-phosphoglycerate [1]: -0.08336
- ADP-D-glucose [1]: -0.05094
- ATP [1]: -0.4333
- CDP [1]: 0.1613
- D-sedoheptulose-1/7-phosphate [1]: 0.02906
- FAD [1]: -0.01537
- GMP [1]: -0.5327
- NAD+ [1]: 0.6915
- NADP+ [1]: -0.1108
- Octoluse Bisphosphate [1]: -0.5568
- Pyroglutamic acid [1]: -0.07773
- UDP-D-glucose [1]: 0.04104
- UDP-D-glucuronate [1]: -0.19
- UDP-N-acetyl-glucosamine [1]: 0.01931
- UDP [1]: 0.1008
- UMP [1]: -0.1897
- UTP [1]: -0.3667
- a-ketoglutarate [1]: -0.2121
- citrate/isocitrate [1]: -0.02741
- cytidine [1]: -0.169
- dATP [1]: -0.3924
- dGMP/AMP [1]: 0.4109
- fumarate [1]: 0.899
- glucose-1/6-phosphate [1]: 0.3195
- glycerate [1]: 0.2766
- guanine [1]: 0.5966
- guanosine [1]: 0.5739
- hypoxanthine [1]: -0.03794
- indole [1]: -0.04008
- inosine [1]: 0.01185
- 2_3-Diphosphoglyceric acid [1]: -0.2785
- 4-phosphopantothenate [1]: 0.1971
- 6-phospho-D-gluconate [1]: -0.09007
- FMN [1]: -0.3587
- IMP [1]: 0.3624
- Pyrophosphate [1]: -0.1133
- Sedoheptoluse bisphosphate [1]: 0.1128
- cyclic-AMP [1]: -0.07748
- glutathione disulfide [1]: -0.04771
- lactate [1]: -0.382
- myo-inositol [1]: -0.001865
- nicotinate [1]: 0.1485
- ornithine [1]: 0.2269
- phosphoenolpyruvate [1]: -0.03548
- pyruvate [1]: -0.182
- ribose-phosphate [1]: -0.3286
- sarcosine/alanine [1]: -0.1738
- sn-glycerol-3-phosphate [1]: -0.2165
- succinate/methylmalonic acid [1]: -0.02068
- uridine [1]: -0.05174
- xanthosine [1]: -0.494
- fold change (IC50reduced/IC50normal) [2]: 2.6
- pIC50 [2, 4]: 6.49
- pIC50 [2, 5]: 6.07
- pEC50 [3]: 6.39
